Where no end group is shown, it is not given here.
Tests used:
porcine intestine = system: porcine intestine; set-up: method as in PMID 17053162, PMID 18976652, PMID 18932279; conditions: porcine intestine models; ref [22]-[24]; cited from earlier work
T84 cells [1] = experiment: 70,000 Da rhodamine-dextran flux across T84 cells; assay type: cell-based; conditions: 200 nM active linaclotide, 200 nM guanylin, 100 nM lubiprostone, 3 days, then dextran 24 h, n = 3
T84 cells [2] = experiment: mitochondrial membrane potential of T84 cells (JC-1); assay type: cell-based
T84 cells [3] = experiment: FITC-LPS flux across T84 cells; assay type: cell-based; conditions: IFN-γ 100 ng/ml
pig jejunum [4] = experiment: mucosal-to-serosal 3H-mannitol flux in pig jejunal mucosa; set-up: species or system Yorkshire crossbred pigs; conditions: n = 3
T84 cells [5] = system: T84 cells
[6] = system: patients with IBS-C and CIC; conditions: human, in vivo; cited from earlier work
occludin = experiment: Western analysis of occludin in sucrose density gradient membrane fractions; set-up: species or system Yorkshire crossbred pigs; conditions: ischemic pig jejunum, n = 3 experiments
pig jejunum [7] = experiment: TER of pig jejunal mucosa in Ussing chambers; set-up: species or system Yorkshire crossbred pigs
T84 cells [8] = experiment: plasma membrane potential of T84 cells (DiBAC4(3)); assay type: cell-based; conditions: different concentrations, p wrt 1 nM drug, n = 5
T84 cells [9] = experiment: 3,000 Da FITC-dextran flux across T84 cells; assay type: cell-based; conditions: 200 nM active linaclotide, 200 nM guanylin, 100 nM lubiprostone, 3 days, then dextran 24 h, n = 3
T84 cells [10] = assay type: cell-based
patients with IBS-C = conditions: ref [21]; cited from earlier work
ClC-2 Cl- channels = system: ClC-2 Cl- channels; set-up: method as in PMID 15213059, PMID 18511742; conditions: apical membrane of epithelial cells; ref [17],[18]; cited from earlier work
[11] = set-up: method as in PMID 16603730; conditions: ref [19],[20]; cited from earlier work
pig jejunum [12] = experiment: short-circuit current (Cl− secretion) of pig jejunal mucosa in Ussing chambers; set-up: species or system Yorkshire crossbred pigs; conditions: 1 μM, n = 4
T84 cells [13] = assay type: cell-based; remark: listed apart in the source
rodent animal models = conditions: in vivo; cited from earlier work
[14] = system: guanylate cyclase-C (GC-C); conditions: cited from earlier work
K+ channels = conditions: cited from earlier work

## CCCCC(F)(F)[C@@]1(O)CC[C@H]2[C@@H](CC(=O)[C@@H]2CCCCCCC(=O)O)O1 [lubiprostone]
Porcine intestine
  barrier repair after ischemia: promotes repair of barrier properties which are disrupted by ischemia
T84 cells [1]
  effect on mucosal to serosal 70,000 Da rhodamine-dextran flux: decreases of these fluxes
T84 cells [2]; 200 nM active linaclotide, 100 nM lubiprostone, 3 days
  effect on mitochondrial membrane potential, no stressor: no effect on the mitochondrial membrane potential
T84 cells [2]; IFN-γ 100 ng/ml, 200 nM active linaclotide or 100 nM lubiprostone, 3 days, n = 8
  IFN-γ-counteracting effect on mitochondrial membrane potential: ~77.8%
T84 cells [3]; 200 nM active linaclotide or 100 nM lubiprostone, 3 days, then LPS 24 h, n = 3
  IFN-γ-counteracting effect on FITC-LPS flux: ~89%
Pig jejunum [4]; control pig jejunum, 60 min flux period
  effect on 3H-mannitol flux, control intestine: neither compound had any effect
Pig jejunum [4]; ischemic pig jejunum (45 min ischemia)
  effect on 3H-mannitol flux after ischemia: decrease in ^3H-mannitol fluxes
T84 cells [5]
  effect on T84 TER, no stressor: slight increase in TER
T84 cells [5]; T84 cells, no stressor, barrier function and mitochondrial membrane potential parameters together
  effect of compound alone on measured T84 parameters: no negative effects on the measured parameters
T84 cells [5]; T84 cells, IFN-γ 100 ng/ml, 200 nM active linaclotide or 100 nM lubiprostone, n = 3, Δlin vs Δlubi p < 0.0005
  IFN-γ-counteracting effect on TER: ca. 27.3%
T84 cells [5]; T84 cells, TNF-α 50 ng/ml, 200 nM active linaclotide or 100 nM lubiprostone
  effect on TNF-α-induced TER change: partially protected/repaired barrier function
[6]
  clinical effect on abdominal discomfort and pain: ameliorates abdominal discomfort and pain
  clinical efficacy of lubiprostone (symptoms): significantly improving symptoms associated with CIC and IBS-C
occludin
  effect on occludin after ischemia: major return of occludin to detergent-insoluble fractions
Pig jejunum [7]; control pig jejunum, 1000 nM (1 μM), control ΔTER 2.1±1.8, n = 5, p < 0.01, mean ± S.E.
  ΔTER, control intestine: 26.3 ± 6.2 % mean basal
Pig jejunum [7]; ischemic pig jejunum (45 min ischemia), n = 5
  effect on TER after ischemia: large, significant increase in TER
T84 cells [8]
  effect on plasma membrane potential: significantly hyperpolarized
T84 cells [9]
  effect on mucosal to serosal 3,000 Da FITC-dextran flux: decreases of these fluxes
T84 cells [10]
  IFN-γ-counteracting effect on occludin/actin ratio: ~43.8%
Patients with IBS-C
  effect on visceral pain thresholds: without influencing visceral pain thresholds
ClC-2 Cl- channels
  ClC-2 activation: activates ClC-2 Cl^- channels
[11]
  intestinal secretion and bowel movements: increasing intestinal salt and water secretion, promoting bowel movements
Pig jejunum [12]
  effect on Isc, control intestine: significant and similar increases in Isc

## CCCCC[C@H](O)/C=C/[C@H]1[C@H](O)CC(=O)[C@@H]1CCCCCCC(=O)O [PGE1, Prostaglandin E1]
T84 cells [13]
  effect on [Ca2+]i: significantly increased

## linaclotide
Rodent animal models
  intestinal fluid secretion, transit and pain: stimulated intestinal fluid secretion and transit time and reduced pain
[6]
  clinical efficacy of linaclotide: improve bowel symptoms, transit time and abdominal discomfort or pain
[14]
  GC-C activation: activates guanylate cyclase-C (GC-C) leading to increased [cGMP]i

## CCC(=O)C(CC(C)N(C)C)(c1ccccc1)c1ccccc1 (stereo not shown) [methadone]
T84 cells [5]
  effect of methadone on linaclotide's effect on TER after TNF-α: no effect
  effect of methadone on lubiprostone's protection/repair of TER after TNF-α: inhibited completely

## guanylin: well established GC-C activator, Sigma-Aldrich (PGTCEICAYAACTGC; ends and bridges not checked; cysteine pairing not given here; UniProt Q02747 101-115, looked up)
T84 cells [1]
  effect on mucosal to serosal 70,000 Da rhodamine-dextran flux: increased mucosal to serosal fluxes
K+ channels
  K+ channel activation: activate K^+ channels
T84 cells [5]
  effect on T84 TER, no stressor: reduced T84 epithelial cell TER significantly
  effects against IFN-γ: effects similar to active linaclotide
[14]
  GC-C activation: activates guanylate cyclase-C (GC-C) leading to increased [cGMP]i
T84 cells [9]
  effect on mucosal to serosal 3,000 Da FITC-dextran flux: increased mucosal to serosal fluxes

## uroguanylin: activates guanylate cyclase-C (NDDCELCVNVACTGCL; ends and bridges not checked; cysteine pairing not given here; UniProt Q16661 97-112, looked up)
K+ channels
  K+ channel activation: activate K^+ channels
[14]
  GC-C activation: activates guanylate cyclase-C (GC-C) leading to increased [cGMP]i

## Nc1nc2c(nc(Br)n2[C@@H]2O[C@@H]3COP(=O)(O)O[C@H]3[C@H]2O)c(=O)[nH]1 [8BrcGMP, 8-bromo cGMP]
T84 cells [5]
  effect on T84 TER, no stressor: reduced T84 epithelial cell TER significantly
  effects against IFN-γ: effects similar to active linaclotide

B1: Interferon-γ (protein, UniProt P01579 24-161, looked up)
Interferon gamma: QDPYVKEAENLKKYFNAGHSDVADNGTLFLGILKNWKEESDRKIMQSQIVSFYFKLFKNFKDDQSIQKSVETIKEDMNVKFFNSNKKKRDDFEKLTNYSVTDLNVQRKAIHELIQVMAELSPAAKTGKRKRSQMLFRG
T84 cells [2]; IFN-γ 100 ng/ml, p < 0.0005
  stressor effect on mitochondrial membrane potential: decreased the mitochondrial membrane potential
T84 cells [3]; p < 0.0005
  stressor effect on mucosal to serosal FITC-LPS flux: increased mucosal to serosal FITC-LPS flux
T84 cells [5]
  stressor effect on TER: significantly reduced TER
T84 cells [10]; T84 cells, IFN-γ 100 ng/ml, p < 0.0005
  stressor effect on occludin/actin ratio: decreased the occludin/actin ratio

Reference: article PMC3403872, “Contrasting effects of linaclotide and lubiprostone on restitution of epithelial cell barrier properties and cellular homeostasis after exposure to cell stressors” (BMC Pharmacology, 2012)
